Measured values reported in paper PMC4160273 (Journal of the American Chemical Society, 2014).
Read-outs that look alike come from different tables or passages of the source. Each block holds one compound with its values, some of them ahead of it.

Experiments:
[1] = thiol, cited from earlier work
RSK2 CTD = RSK2 CTD (Mus musculus, UniProt P18654); settings: after 4 hours, guanidine
endogenous RSK1 and RSK2 = test: RSK1/2 occupancy in MDA-MB-231 cells by competitive labeling with BODIPY-FMK; assay type: cell-based; settings: 0.1 and 1.0 μM, 2 h

SMILES: OCCS [BME, β-mercaptoethanol]
- pKa ([1]; ref [34]): 9.6

- % dissociation / recovered from RSK2 after unfolding (RSK2 CTD): ~ 2%
SMILES: COc1cc(-c2n[nH]c3ccc(C=C(C#N)n4cccn4)cc23)cc(OC)c1OC [S3]

SMILES: Cc1ccc(-c2c(C=C(C#N)c3ccncc3)n(CCCO)c3ncnc(N)c23)cc1 [compound 17]
- Labeling of RSK1/2 by BODIPY-FMK in pretreated cells (endogenous RSK1 and RSK2): less effective

SMILES: NCCS [cysteamine]
- pKa ([1]; ref [36]): 8.4
